Laboratory results as given in paper PMC6518372, “An enzymatically stable GIP/xenin hybrid peptide restores GIP sensitivity, enhances beta cell function and improves glucose homeostasis in high-fat-fed mice” (Diabetologia, 2016).
Marks after values point to notes of the source that are not given here.

Assays:
Format in all cases: in vivo, mouse
lean control mice = assay: Persistent glucose-lowering and insulin-releasing effects, peptide 4 h before glucose load; conditions: 25 nmol/kg injected 4 h before i.p. glucose load 18 mmol/kg, non-fasted lean mice, vs saline
Experimental: Specific information on acute feeding, glucose homeostasis and insulin-secretory studies is given in ESM Methods. To assess the impact of GIP and neurotensin receptor activation on (DAla^2)GIP/xenin-8-Gln-induced glucose-lowering and insulin-secretory actions in mice, (DAla^2)GIP/xenin-8-Gln was administered by i.p. injection (25 nmol/kg body weight) in combination with glucose (18 mmol/kg) in the absence and presence of GIP(6-30)Cex-K^40[Pal] and SR142948A (both at 25 nmol/kg), and glucose and insulin were measured as described above. In a final series of experiments, test peptides (25 nmol/kg) or saline vehicle (0.9% wt/vol. NaCl) were injected 4 h before a glucose load (18 mmol/kg) in non-fasted mice and blood glucose and plasma insulin measured as above.

high-fat-fed mice [1] = assay: Glucose tolerance test after 21 day treatment; conditions: AUC 0–105 min after i.p. glucose 18 mmol/kg; 25 nmol/kg twice daily for 21 days; 18 h fasted high-fat-fed mice; mean ± SEM, 6–8 mice
Experimental: (§1) Twice-daily (09:30 and 17:30 hours) i.p. injections of saline vehicle, (DAla^2)GIP or (DAla^2)GIP/xenin-8-Gln hybrid (both at 25 nmol/kg) were administered for 21 days in high-fat-fed mice. Energy intake and body weight were monitored daily and non-fasting blood glucose and plasma insulin concentrations were assessed at 3 day intervals. On day 21, a non-fasted 24 h glucose profile was conducted. At the end of the treatment period, i.p. glucose tolerance (18 mmol/kg), biological response to GIP (18 mmol/kg glucose in combination with native GIP [25 nmol/kg], i.p.) and insulin sensitivity (15 U/kg; i.p.) tests were performed. Terminal analysis included measurement of total body fat and lean mass by dual-energy X-ray absorptiometry (DEXA) scanning (Piximus Densitometer; Inside Outside Sales, Fitchburg, WI, USA) and extraction of pancreatic tissue for analysis as detailed below.

high-fat-fed mice [2] = assay: Insulin sensitivity test after 21 day treatment; conditions: insulin 15 U/kg i.p., non-fasted high-fat-fed mice after 21 days at 25 nmol/kg twice daily
Experimental: as §1
Fig. 4 Effects of twice-daily administration of (DAla^2)GIP and (DAla^2)GIP/xenin-8-Gln on insulin sensitivity and pancreatic insulin content in high-fat-fed mice. […] Blood glucose was measured (a), area above the curve (AAC) was calculated using identical baseline subtraction for each group (b) and pancreatic insulin content was measured by RIA (c). […]

high-fat-fed mice [3] = assay: Subchronic 21 day twice-daily treatment: energy intake, body weight, body composition, non-fasted glucose and insulin; conditions: 25 nmol/kg i.p. twice daily
Experimental: as §1
Blood samples were collected from the cut tip on the tail vein of conscious mice into chilled fluoride/heparin glucose micro-centrifuge tubes (Sarstedt, Numbrecht, Germany). Blood glucose was measured directly using a hand-held Ascencia Contour blood glucose meter (Bayer Healthcare, Newbury, UK). Plasma and pancreatic insulin was assayed by a modified dextran-coated charcoal radioimmunoassay.
In vitro insulin release studies Cells were seeded at a density of 150,000 cells/well in 24-well plates (Nunc, Roskilde, Denmark) and allowed to attach overnight at 37 °C. Culture medium was removed and cells were pre-incubated in Krebs–Ringer bicarbonate buffer (containing 0.5% (w/v) BSA, pH 7.4) supplemented with 1.1 mmol/l glucose for 40 min at 37 °C. Following the pre-incubation, experiments (n=8) were performed in presence of glucose (5.6 or 16.7 mmol/l) with a […]
incubations, aliquots of assay buffer were collected from each well and stored at -20 °C prior to […]
Animals Acute animal studies were conducted in male NIH Swiss mice (12-14 weeks old, Harlan Ltd, UK) maintained on a standard rodent maintenance diet (10% fat, 30% protein and 60% carbohydrate, Trouw Nutrition, UK). Prior to commencement of longer term studies, all animals, except lean controls that continued on rodent maintenance diet, were maintained on a high-fat diet (45% fat, 35% carbohydrate and 20% protein, Special Diet Services, UK) for 12 weeks. This diet […]
individually in an air-conditioned room at 22 ± 2 °C with a 12 h light:12 h dark cycle and had free access to food and water. Animal experiments were carried out in accordance with the UK Animals (Scientific Procedures) Act 1986.
Acute in vivo effects in lean mice For food intake studies, fasted (18 h) mice were given intraperitoneal (i.p) injections of peptides at a dose of 25, 100 or 250 nmol/kg bw. Mice were then allowed free access to normal chow for 180 mins and cumulative food intake measured. For glucose homeostasis and […]

high-fat-fed mice [4] = assay: Metabolic response to native GIP after 21 day treatment; conditions: 25 nmol/kg twice daily for 21 days
Experimental: as §1

[5] = 21 days, high-fat-fed mice, vs high-fat-fed controls
[6] = AUC 0–105 min after i.p. glucose 18 mmol/kg with GIP 25 nmol/kg, 18 h fasted high-fat-fed mice, mean ± SEM, 6–8 mice

For `CC[C@H](C)[C@H](NC(=O)[C@H](CO)NC(=O)[C@H](Cc1ccc(O)cc1)NC(=O)[C@H](CC(=O)O)NC(=O)[C@H](CO)NC(=O)[C@@H](NC(=O)[C@H](Cc1ccccc1)NC(=O)[C@@H](NC(=O)CNC(=O)[C@H](CCC(=O)O)NC(=O)[C@@H](C)NC(=O)[C@@H](N)Cc1ccc(O)cc1)[C@@H](C)O)[C@@H](C)CC)C(=O)N[C@@H](C)C(=O)N[C@@H](CCSC)C(=O)N[C@@H](CC(=O)O)C(=O)N[C@@H](CCCCN)C(=O)N[C@H](C(=O)N[C@@H](Cc1c[nH]cn1)C(=O)N[C@@H](CCC(N)=O)C(=O)N[C@@H](CCC(N)=O)C(=O)N[C@@H](CC(=O)O)C(=O)N[C@@H](Cc1ccccc1)C(=O)N[C@H](C(=O)N[C@@H](CC(N)=O)C(=O)N[C@@H](Cc1c[nH]c2ccccc12)C(=O)N[C@@H](CC(C)C)C(=O)N[C@@H](CC(C)C)C(=O)N[C@@H](C)C(=O)N[C@@H](CCC(N)=O)C(=O)N[C@@H](CCCCN)C(=O)NCC(=O)N[C@@H](CCCCN)C(=O)N[C@@H](CCCCN)C(=O)N[C@@H](CC(N)=O)C(=O)N[C@@H](CC(=O)O)C(=O)N[C@@H](Cc1c[nH]c2ccccc12)C(=O)N[C@@H](CCCCN)C(=O)N[C@@H](Cc1c[nH]cn1)C(=O)N[C@@H](CC(N)=O)C(=O)N[C@H](C(=O)N[C@H](C(=O)N[C@@H](CCC(N)=O)C(=O)O)[C@@H](C)O)[C@@H](C)CC)C(C)C)[C@@H](C)CC` [(DAla^2)GIP], the “Overall AUC for blood glucose after glucose challenge” value (lean control mice) was “significantly reduced the overall AUC for blood glucose (p < 0.05)”, the “Plasma insulin AUC after glucose challenge” value (lean control mice) was “increased plasma insulin AUC (p < 0.05)” and the “Glucose tolerance test: Blood glucose AUC” value (high-fat-fed mice [1]) was 1714.7 ± 138.6 mmol·min/L. The “Glucose tolerance test: Plasma insulin AUC” value (high-fat-fed mice [1]) was 11,253 ± 1590 pmol/l × min, the “Individual blood glucose levels following exogenous insulin” value (high-fat-fed mice [2]) was “reduced, albeit non-significantly” and the “Overall glucose-lowering effect of insulin (area above the curve)” value (high-fat-fed mice [2]; vs control high-fat mice) was “significantly (p < 0.001) improved”. For the same compound, the Body weight (high-fat-fed mice [3]; [5]) was “no significant effect”, the Cumulative energy intake (high-fat-fed mice [3]; [5]) was “no significant effect” and the “Non-fasting 24 h blood glucose profile” value (high-fat-fed mice [3]; day 21, high-fat-fed mice) was “also reduced, but not to the same extent”. For the same compound, the “Total body fat and lean mass (DEXA)” value (high-fat-fed mice [3]; day 21, high-fat-fed mice) was “unaltered”, the Non-fasted plasma insulin (high-fat-fed mice [3]; day 21, high-fat-fed mice, vs high-fat-fed controls) was “reduced plasma insulin levels compared with high-fat-fed controls on day 21 but the difference did not reach statistical significance” and the “Non-fasting blood glucose compared with lean controls” value (high-fat-fed mice [3]; high-fat-fed mice, from day 12 onwards) was “not significantly different from lean controls”. For the same compound, the “Decrease of overall blood glucose AUC in response to native GIP compared with saline-treated control” value (high-fat-fed mice [4]; high-fat-fed mice, glucose 18 mmol/kg with GIP 25 nmol/kg) was 36%, the “Metabolic response to GIP: Blood glucose AUC” value (high-fat-fed mice [4]; [6]) was 1029.5 ± 138.0 mmol·min/L and the “Metabolic response to GIP: Plasma insulin AUC” value (high-fat-fed mice [4]; [6]) was 20,308 ± 3805**^,††† pmol/l × min.
